Experimental data: patent US20240173320A1, “METHODS OF USING EHMT2 INHIBITORS IN IMMUNOTHERAPIES” (Epizyme, Inc., priority 2017, published 2024)
“Also recorded” adds a separate entry of the source.

What was measured:
H3K9me2 [1] = assay: Methyl mark (H3K9me2) by flow cytometry under Treg polarizing conditions; format: cell-based, human; conditions: naive CD4 T cells from healthy donor PBMCs, six days, flow cytometry (Example 3, FIGS. 3, 4A-4B)
Method: (§1) Naive CD4 T cells were isolated from healthy donor PBMCs using magnetic bead separation and were incubated for six days with cytokine cocktail to promote polarization to T regulatory cells, as described in [0601]. Cells were simultaneously treated with various concentrations of G9a inhibitors, with compound replenishment occurring at either day three or day four. Polarization to T regulatory cells was assessed by flow cytometry using Foxp3 and CD25. Methyl mark (H3K9me2) was also assessed by flow cytometry.

H3K9me2 [2] = assay: Methyl mark (H3K9me2) by flow cytometry under Th17 polarizing conditions; format: cell-based, human; conditions: naive CD4 T cells from healthy donor PBMCs, flow cytometry (Example 4, FIGS. 5, 6A-6B)
Method: as §1, with “incubated” for “incubated for six days”, “Th17” for “T regulatory”, “at” for “at either”, “or” for “or day”, “IL-17A” for “Foxp3”, “IFNy.” for “CD25.”

[3] = system: naive CD4 T cells isolated from human PBMCs; assay: T regulatory (Treg) cell polarization of naive CD4 T cells, flow cytometry for CD25 and Foxp3; format: cell-based; conditions: for Treg polarization: naive CD4 T cells from healthy donor PBMCs, six days, Foxp3 and CD25 by flow cytometry (Example 3, FIGS. 3, 4A-4B)
Method: (§2) To evaluate the effects of Compounds on T regulatory (Treg) and Th17 cell polarization, naive CD4 T cells were isolated from human peripheral blood mononuclear cells (PBMCs) using magnetic bead separation and cultured with or without compound in the presence of Treg or Th17 polarizing cytokines. For Treg polarization, naive cells were cultured for five days with anti-CD3, anti-CD28, TL-2 and TGFβ. After five days, the cells were then evaluated for CD25 and Foxp3 expression by flow cytometry. For Th17 polarization, naive cells were cultured for 10-11 days with anti-CD3, anti-CD28, […], IL-6, IL-23, TGFβ, anti-IFNγ antibody and anti-IL-4 antibody. After 10-11 days cells were stimulated and then evaluated for IL-17 and IFNγ by flow cytometry.
(§3) To evaluate the effects of Compound 571 on Treg cell polarization, naive cells were isolated from human peripheral blood mononuclear cells (PBMCs), stimulated with coated CD3 antibody and soluble CD28 antibody, and cultured with or without compound in the presence of Treg polarizing cytokines for five days, as described in [0601]. Compound was replenished at either day three or day four.
as §1

[4] = system: naive CD4 T cells isolated from human PBMCs; assay: Th17 cell polarization of naive CD4 T cells, flow cytometry for IL-17 and IFNγ; format: cell-based; conditions: for percentage of polarized Th17 cells: naive cells from human PBMCs, Th17 polarizing cytokines, 11 days, IL-17 and IFNγ by flow cytometry (Example 2, FIGS. 1B, 2)
Method: as §2
as §3, with “of Compounds 205 and” for “of Compound”, “on Th17” for “on Treg”, “of Th17” for “of Treg”, “for 11 days” for “for five days,”, “four. After 11 days of treatment, cells were stimulated with PMA, ionomycin, brefeldin A and monensin, and then evaluated for IL-17 and IFNγ by flow cytometry.” for “four.”
as §1, with “incubated” for “incubated for six days”, “Th17” for “T regulatory”, “at” for “at either”, “or” for “or day”, “IL-17A” for “Foxp3”, “IFNy.” for “CD25.”

SMILES | H3K9me2 (methyl mark) under Treg polarization (H3K9me2 [1]) | H3K9me2 (methyl mark) under Th17 polarization (H3K9me2 [2]) | Treg polarization [3] | percentage of polarized Th17 cells [4] | Th17 polarization ([4]; naive CD4 T cells from healthy donor PBMCs, IL-17A and IFNγ by flow cytometry (Example 4, FIG. 5)) | polarized Treg cells ([3]; naive cells from human PBMCs, Treg polarizing cytokines, five days (Example 2, FIG. 1A))
CNC1=Nc2cc(C#CCN3CCCCC3)c(OC)cc2C12CCC2 [Compound A75] | decreased | decreased | increased | – | – | –
CNc1cc(C)nc(Nc2ccc(OC)c(OCCCN3CCCC3)c2)n1 [Compound 205] | decreased | decreased | increased | dose-dependent increase | – | –
CNCc1cnn(-c2cc(Nc3nc(C)cc(NC)n3)ccc2OC)c1 [Compound D6] | dose-dependent decrease; also recorded: decreased | dose-dependent decrease; also recorded: decreased | dose-dependent increase; also recorded: increased | – | dose-dependent increase | –
CCN1CC[C@@H](COc2cc(Nc3nc(C)cc(NC)n3)ccc2OC)C1 [Compound 571] | – | – | – | dose-dependent increase | – | anin polarized Treg cells
